Measurements as given in publication PMC6362307, “DPP8/DPP9 inhibition elicits canonical Nlrp1b inflammasome hallmarks in murine macrophages” (Life Science Alliance, 2019).
Where two headings read alike, the source gives them in different places. Values belong to the compound of their own block, whether it stands above or below them.

Columns and labels:
B6 BMDMs = assay: Cell death kinetics, Sytox Green on Incucyte; type: cell-based
B6^Nlrp1b+ BMDMs [1] = assay: Cell death kinetics, Sytox Green on Incucyte; type: cell-based, mouse; details: for time to reach 30% half-maximal level of pyroptosis: VBP: all tested concentrations (10, 25, 40 μM), 1G244: 10 μM
B6^Nlrp1b+ BMDMs [2] = assay: Caspase-1 cleavage by immunoblot; type: cell-based, mouse; details: for caspase-1 maturation to p20 (in words): LPS-primed 3 h, 10 or 40 μM, 4, 8 and 24 h; for caspase-1 maturation (in words): LPS-primed, 4 and 8 h
[3] = test system: LPS-primed B6^Nlrp1b+ BMDMs; assay: IL-1β and IL-18 secretion, Luminex multiplex assay; type: cell-based, mouse
B6^Nlrp1b+ BMDMs [4] = assay: ASC speck formation, confocal imaging; type: cell-based, mouse; details: 10 μM; 4 or 8 h
Experimental: Cells were stained with anti-ASC (1:200) antibody, followed by secondary anti-rabbit DyLight 594 (1:1,000). Then, slides were mounted on ProLong Gold Antifade reagent with DAPI for analysis. For quantification of ASC specks, analyses were performed on a spinning-disk system (Zeiss), using an observer Z.1 microscope equipped with a Yokogawa disk CSU-X1. Fluorescent images were acquired with the use of a Plan-Apochromat 40×/1.4 oil DIC III objective and a Rolera Em-C2 Camera. Tile scanning was performed combining 4 × 5 images for the final mosaic (total area 7.42 mm × 5.91 mm). The maximum intensity projections of the final mosaic were analysed on Volocity 6.3.1 (PerkinElmer) software for the number of cells containing ASC specks. Seven mosaics were quantified per experimental condition from each biological repeat and the data from all repeats were combined. One-way ANOVA with Tukey’s multiple comparisons analysis was performed in GraphPad Prism 6.0 software.

B6^Nlrp1b+ASC^−/− BMDMs [5] = assay: Cell death kinetics, Sytox Green on Incucyte; type: cell-based, mouse; details: 10 μM
B6^Nlrp1b+ASC^−/− BMDMs [6] = assay: Caspase-1 cleavage by immunoblot; type: cell-based, mouse; details: 10 μM; 8 h
[7] = test system: B6^Nlrp1b+C1^−/−C11^−/−ASC^−/− macrophages; assay: Cell death morphology, confocal bright-field imaging; type: cell-based, mouse; details: 10 μM; 4 h
[8] = test system: B6^Nlrp1b+GSDMD^−/− macrophages; assay: Apoptosis induction, confocal bright-field imaging; type: cell-based, mouse; details: 10 μM; 4 h
human DPP9 [9] = biological target: T1, human DPP9 (Homo sapiens, UniProt Q86TI2); details: for Inhibitor in lysate / Inhibitor in medium: mouse, 15 min, 10 µM
human DPP9 [10] = biological target: T1, human DPP9; assay: biochemical
Human DPP2 [11] = biological target: T2, Human DPP2 (Homo sapiens, UniProt Q9UHL4)
Experimental: (§1) Lys-Ala-paranitroanilide (Lys-Ala-pNA) was used as substrate at a final concentration of 1 mM.

Human DPP2 [12] = biological target: T2, Human DPP2; assay: biochemical
Experimental: as §1

Human recombinant FAP = biological target: T3, Human recombinant FAP (Homo sapiens, UniProt Q12884)
T3 sequence (Q12884 26-760 limits assumed): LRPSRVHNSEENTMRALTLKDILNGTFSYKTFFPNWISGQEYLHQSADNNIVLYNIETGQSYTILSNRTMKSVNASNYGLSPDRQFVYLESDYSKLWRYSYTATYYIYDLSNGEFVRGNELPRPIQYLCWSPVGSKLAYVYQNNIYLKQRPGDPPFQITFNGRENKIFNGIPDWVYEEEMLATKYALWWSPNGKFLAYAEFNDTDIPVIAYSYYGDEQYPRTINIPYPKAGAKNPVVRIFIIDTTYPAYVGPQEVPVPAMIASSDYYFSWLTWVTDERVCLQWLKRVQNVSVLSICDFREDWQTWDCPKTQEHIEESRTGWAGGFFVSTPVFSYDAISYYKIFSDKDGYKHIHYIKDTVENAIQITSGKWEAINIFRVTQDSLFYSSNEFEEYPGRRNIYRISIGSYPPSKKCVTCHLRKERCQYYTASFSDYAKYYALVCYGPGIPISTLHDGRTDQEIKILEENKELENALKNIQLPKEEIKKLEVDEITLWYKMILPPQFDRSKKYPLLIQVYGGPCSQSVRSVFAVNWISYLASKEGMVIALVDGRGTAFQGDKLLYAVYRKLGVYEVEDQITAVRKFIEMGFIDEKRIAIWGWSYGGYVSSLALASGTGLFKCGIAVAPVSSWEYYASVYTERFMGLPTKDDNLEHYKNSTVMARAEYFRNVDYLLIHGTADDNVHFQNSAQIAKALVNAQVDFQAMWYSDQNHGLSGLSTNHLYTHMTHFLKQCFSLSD
Experimental: FAP and PREP were assayed in buffer containing 0.1 M Tris–HCl (pH 8), 300 mM NaF, 1 mM EDTA, 50 mM salicylic acid, and 5 mM DTT.

[13] = test system: B6^Nlrp1b+C1^−/−C11^−/− macrophages; assay: Caspase-8 cleavage by immunoblot; type: cell-based, mouse; details: 10 μM; 4 h
J774.A1 cells = assay: Cell death kinetics, Sytox Green on Incucyte; details: 10 μM and 25 μM
[14] = calibration curve in cell lysate
[15] = cell lysate of BMDMs that received 10 µM for 15 min
[16] = medium of BMDMs that received 10 µM for 15 min
[17] = Ic50, calibration curve in cell lysate
[18] = Ic50, calibration curve in medium

T1 sequence (Q86TI2 whole entry): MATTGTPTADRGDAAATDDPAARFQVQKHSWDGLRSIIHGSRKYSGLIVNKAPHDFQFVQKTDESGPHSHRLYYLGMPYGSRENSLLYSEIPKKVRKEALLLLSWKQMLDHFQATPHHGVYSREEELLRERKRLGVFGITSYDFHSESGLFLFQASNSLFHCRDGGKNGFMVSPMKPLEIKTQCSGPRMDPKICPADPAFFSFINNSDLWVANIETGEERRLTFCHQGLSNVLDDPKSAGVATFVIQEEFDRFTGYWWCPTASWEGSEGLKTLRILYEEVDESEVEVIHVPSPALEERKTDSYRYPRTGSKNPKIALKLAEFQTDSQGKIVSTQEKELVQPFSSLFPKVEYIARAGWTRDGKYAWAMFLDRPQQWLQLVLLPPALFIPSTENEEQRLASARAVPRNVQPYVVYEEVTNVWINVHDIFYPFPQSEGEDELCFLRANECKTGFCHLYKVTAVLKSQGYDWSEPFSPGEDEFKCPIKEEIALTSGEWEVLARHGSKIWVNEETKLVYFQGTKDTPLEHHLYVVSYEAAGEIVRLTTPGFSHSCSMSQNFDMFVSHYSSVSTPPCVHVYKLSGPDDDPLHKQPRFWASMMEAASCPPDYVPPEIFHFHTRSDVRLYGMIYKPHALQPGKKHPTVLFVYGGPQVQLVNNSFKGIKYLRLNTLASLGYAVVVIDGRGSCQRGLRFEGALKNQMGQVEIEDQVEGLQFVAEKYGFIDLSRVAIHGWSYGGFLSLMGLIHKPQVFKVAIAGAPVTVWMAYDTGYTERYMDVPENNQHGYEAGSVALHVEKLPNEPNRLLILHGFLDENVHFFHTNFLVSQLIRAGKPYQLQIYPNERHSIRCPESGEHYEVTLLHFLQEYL

caspase-1 maturation (in words) (B6^Nlrp1b+ BMDMs [2]; 1 μM): triggered weak caspase-1 processing
caspase-1 maturation (in words) (B6^Nlrp1b+ASC^−/− BMDMs [6]): blunted
Slope factor (human DPP9 [9]; [14]): 1.30 ± 0.09
Slope factor (human DPP9 [9]; calibration curve in medium): 1.39 ± 0.09
Inhibition (human DPP9 [9]; [15]): 98%
Inhibition (human DPP9 [9]; [16]): 100%
Inhibitor in lysate (human DPP9 [9]): 0.06 µM
Inhibitor in medium (human DPP9 [9]): 1.5 µM
IC50 (human DPP9 [10]; [17]): 10 ± 0.6 nM
IC50 (human DPP9 [10]; [18]): 15.3 ± 0.8 nM
Structure (SMILES): N[C@@H](CC(=O)N1CCN(C(c2ccc(F)cc2)c2ccc(F)cc2)CC1)C(=O)N1Cc2ccccc2C1 [1G244]
time at which pyroptosis commences (B6 BMDMs; 10 μM or 25 μM): around 10 h
pyroptosis, share of the cell population (B6 BMDMs; by 24 h, 10 μM or 25 μM): ~20%
pyroptosis level (B6 BMDMs; by 24 h, 40 μM): 40%
cell death induction (in words) (B6^Nlrp1b+ BMDMs [1]; 0.1 μM): failed to trigger a cytotoxic response
cell death induction (in words) (B6^Nlrp1b+ BMDMs [1]; 1 μM): induced a reduced level of pyroptosis
plateau of pyroptosis (B6^Nlrp1b+ BMDMs [1]; 10 μM, by 6 h posttreatment): about 60%
time to reach 30% half-maximal level of pyroptosis (B6^Nlrp1b+ BMDMs [1]): ≤ 2 h
caspase-1 maturation to p20 (in words) (B6^Nlrp1b+ BMDMs [2]): efficiently promoted caspase-1 auto-maturation
secretion of IL-1β and IL-18 (in words) ([3]; 10 or 40 μM, 4, 8 or 24 h): potently triggered secretion of IL-1β and IL-18
ASC speck formation (in words) (B6^Nlrp1b+ BMDMs [4]): marked ASC speck formation
reduction of maximal level of pyroptosis compared with ASC-sufficient B6^Nlrp1b+ macrophages (B6^Nlrp1b+ASC^−/− BMDMs [5]): about 50%
cell death (in words) [7]: remained alive and were fully rescued from apoptosis and pyroptosis induction
apoptosis induction (in words) [8]: potently induce apoptosis

Structure (SMILES): N#C[C@@H]1CCCN1C(=O)[C@@H]1CCCN1C(=O)CCCc1ccccc1 [KYP-2047]
cell death induction (in words) (B6 BMDMs; 10, 25 and 40 μM): none of the listed inhibitors triggered a cell death response
cell death induction (in words) (B6^Nlrp1b+ BMDMs [1]; 10, 25 and 40 μM): none of the listed inhibitors triggered a cell death response

Slope factor (Human DPP2 [11]; [14]): 1.3 ± 0.3
Slope factor (Human DPP2 [11]; calibration curve in medium): 1.4 ± 0.1
Inhibition (Human DPP2 [11]; [15]): 100%
Inhibition (Human DPP2 [11]; [16]): 100%
Inhibitor in lysate (Human DPP2 [11]; mouse, 15 min, 10 µM): 120/66
Inhibitor in medium (Human DPP2 [11]; mouse, 15 min, 10 µM): 52/45
IC50 (Human DPP2 [12]; [17]): 6 ± 1 nM
IC50 (Human DPP2 [12]; [18]): 9.8 ± 0.6 nM
Structure (SMILES): N[C@@H](CCNCc1ccc(Cl)cc1)C(=O)N1CCCCC1 [UAMC39]
cell death induction (in words) (B6 BMDMs; 10, 25 and 40 μM): none of the listed inhibitors triggered a cell death response
cell death induction (in words) (B6^Nlrp1b+ BMDMs [1]; 10, 25 and 40 μM): none of the listed inhibitors triggered a cell death response

Slope factor (Human recombinant FAP; [14]): 1.21 ± 0.07
Slope factor (Human recombinant FAP; calibration curve in medium): 1.2 ± 0.1
Inhibition (Human recombinant FAP; [15]): 100%
Inhibition (Human recombinant FAP; [16]): 100%
Inhibitor in lysate (Human recombinant FAP; mouse, 15 min, 10 µM): 0.4 µM
Inhibitor in medium (Human recombinant FAP; mouse, 15 min, 10 µM): 8.8 µM
Structure (SMILES): N#C[C@@H]1CC(F)(F)CN1C(=O)CNC(=O)c1ccnc2ccccc12 [UAMC1110]
cell death induction (in words) (B6 BMDMs; 10, 25 and 40 μM): none of the listed inhibitors triggered a cell death response
cell death induction (in words) (B6^Nlrp1b+ BMDMs [1]; 10, 25 and 40 μM): none of the listed inhibitors triggered a cell death response

Structure (SMILES): CC(C)[C@H](N)C(=O)N1CCC[C@H]1B(O)O [VBP, Val-boroPro]
time required to reach 30% cytotoxicity (B6 BMDMs; 10, 25 and 40 μM): about 8 h
level of pyroptosis (SG-positive cells relative to Triton X100) (B6 BMDMs; by 6 h, 10, 25 and 40 μM): ~20%
plateau cytotoxicity (B6 BMDMs; by 24 h, 10, 25 and 40 μM): approximately 50%
time to reach the same level of cell death induction (35%) (B6 BMDMs; rebuttal letter, on Figure 1a): approximately 9 h
cell death induction (in words) (B6^Nlrp1b+ BMDMs [1]; 0.1 μM): failed to trigger a cytotoxic response
cell death induction (in words) (B6^Nlrp1b+ BMDMs [1]; 1 μM): sufficient to induce robust pyroptosis
time to reach 30% half-maximal level of pyroptosis (B6^Nlrp1b+ BMDMs [1]): ≤ 3 h
time to reach half-maximal induction of pyroptosis (35% cell death in the total cell population) (B6^Nlrp1b+ BMDMs [1]; rebuttal letter, on Figure 1a): about 3 hours
caspase-1 maturation to p20 (in words) (B6^Nlrp1b+ BMDMs [2]): triggered marked caspase-1 cleavage
caspase-1 maturation (in words) (B6^Nlrp1b+ BMDMs [2]; 0.1 μM): failed to induce caspase-1 auto-cleavage
caspase-1 maturation (in words) (B6^Nlrp1b+ BMDMs [2]; 1 μM): sufficient to trigger caspase-1 maturation
secretion of IL-1β and IL-18 (in words) ([3]; 10 or 40 μM, 4, 8 or 24 h): potently released IL-1β
ASC speck formation (in words) (B6^Nlrp1b+ BMDMs [4]): marked ASC speck formation
reduction of maximal level of pyroptosis compared with ASC-sufficient B6^Nlrp1b+ macrophages (B6^Nlrp1b+ASC^−/− BMDMs [5]): about 50%
caspase-1 maturation (in words) (B6^Nlrp1b+ASC^−/− BMDMs [6]): blunted
cell death (in words) [7]: remained alive and were fully rescued from apoptosis and pyroptosis induction
caspase-8 cleavage (in words) [13]: marked ASC-dependent caspase-8 cleavage
apoptosis induction (in words) [8]: potently induce apoptosis
cytotoxic response (in words) (J774.A1 cells): elicited a swift and robust cytotoxic response

caspase-1 maturation to p20 (in words) (B6^Nlrp1b+ BMDMs [2]): failed to elicit caspase-1 maturation
Structure (SMILES): CC(=O)N[C@H](C(=O)N1CCC[C@H]1B(O)O)C(C)C [aVBP]
cell death induction (in words) (B6 BMDMs; 10, 25 and 40 μM): failed to induce cytotoxicity
cell death induction (in words) (B6^Nlrp1b+ BMDMs [1]; 10, 25 and 40 μM): failed to induce cytotoxicity
secretion of IL-1β and IL-18 (in words) ([3]; 10 or 40 μM, 4, 8 or 24 h): failed to induce cytokine secretion

Slope factor (human DPP9 [9]; [14]): 1.4 ± 0.2
Slope factor (human DPP9 [9]; calibration curve in medium): 1.33 ± 0.08
Inhibition (human DPP9 [9]; [15]): 2.7%
Inhibition (human DPP9 [9]; [16]): 71%
Inhibitor in lysate (human DPP9 [9]): 0.3 µM
Inhibitor in medium (human DPP9 [9]): 3.2 µM
attenuation in ability to inhibit DPP9 activity in vitro (human DPP9 [9]; relative to VBP): more than 100 fold
IC50 (human DPP9 [10]; [17]): 1600 ± 100 nM
IC50 (human DPP9 [10]; [18]): 1700 ± 80 nM
Structure (SMILES): CC(C)[C@@H]1[NH2+][B-](O)(O)[C@@H]2CCCN2C1=O [cVBP]
cell death induction (in words) (B6 BMDMs; 10, 25 and 40 μM): failed to induce cell death
cell death induction (in words) (B6^Nlrp1b+ BMDMs [1]; 10, 25 and 40 μM): induced significant pyroptosis
caspase-1 maturation to p20 (in words) (B6^Nlrp1b+ BMDMs [2]): caspase-1 p20 cleavage was detected only in lysates of macrophages that had been treated with the highest concentration (40 μM)
secretion of IL-1β and IL-18 (in words) ([3]; 10 μM): less efficient in eliciting extracellular secretion of IL-1β and IL-18
secretion of IL-1β and IL-18 (in words) ([3]; 40 μM): triggered substantial extracellular release of IL-1β and IL-18

Structure (SMILES): N[C@@H](CC(=O)N1CCn2c(nnc2C(F)(F)F)C1)Cc1cc(F)c(F)cc1F [sitagliptin]
cell death induction (in words) (B6 BMDMs; 10, 25 and 40 μM): none of the listed inhibitors triggered a cell death response
cell death induction (in words) (B6^Nlrp1b+ BMDMs [1]; 10, 25 and 40 μM): none of the listed inhibitors triggered a cell death response
